# Literature values in patent EP2537519A1, “NEUROPATHIC PAIN ALLEVIATING AGENT” (HBC Science Laboratory Co., Ltd, priority 2010, dated 2011).
# Biological target: Cav3.2 (Homo sapiens, UniProt O95180)
# Conditions: reported by Nelson et al., J Neurosci 2007
# Cav3.2, sequence (O95180 whole entry): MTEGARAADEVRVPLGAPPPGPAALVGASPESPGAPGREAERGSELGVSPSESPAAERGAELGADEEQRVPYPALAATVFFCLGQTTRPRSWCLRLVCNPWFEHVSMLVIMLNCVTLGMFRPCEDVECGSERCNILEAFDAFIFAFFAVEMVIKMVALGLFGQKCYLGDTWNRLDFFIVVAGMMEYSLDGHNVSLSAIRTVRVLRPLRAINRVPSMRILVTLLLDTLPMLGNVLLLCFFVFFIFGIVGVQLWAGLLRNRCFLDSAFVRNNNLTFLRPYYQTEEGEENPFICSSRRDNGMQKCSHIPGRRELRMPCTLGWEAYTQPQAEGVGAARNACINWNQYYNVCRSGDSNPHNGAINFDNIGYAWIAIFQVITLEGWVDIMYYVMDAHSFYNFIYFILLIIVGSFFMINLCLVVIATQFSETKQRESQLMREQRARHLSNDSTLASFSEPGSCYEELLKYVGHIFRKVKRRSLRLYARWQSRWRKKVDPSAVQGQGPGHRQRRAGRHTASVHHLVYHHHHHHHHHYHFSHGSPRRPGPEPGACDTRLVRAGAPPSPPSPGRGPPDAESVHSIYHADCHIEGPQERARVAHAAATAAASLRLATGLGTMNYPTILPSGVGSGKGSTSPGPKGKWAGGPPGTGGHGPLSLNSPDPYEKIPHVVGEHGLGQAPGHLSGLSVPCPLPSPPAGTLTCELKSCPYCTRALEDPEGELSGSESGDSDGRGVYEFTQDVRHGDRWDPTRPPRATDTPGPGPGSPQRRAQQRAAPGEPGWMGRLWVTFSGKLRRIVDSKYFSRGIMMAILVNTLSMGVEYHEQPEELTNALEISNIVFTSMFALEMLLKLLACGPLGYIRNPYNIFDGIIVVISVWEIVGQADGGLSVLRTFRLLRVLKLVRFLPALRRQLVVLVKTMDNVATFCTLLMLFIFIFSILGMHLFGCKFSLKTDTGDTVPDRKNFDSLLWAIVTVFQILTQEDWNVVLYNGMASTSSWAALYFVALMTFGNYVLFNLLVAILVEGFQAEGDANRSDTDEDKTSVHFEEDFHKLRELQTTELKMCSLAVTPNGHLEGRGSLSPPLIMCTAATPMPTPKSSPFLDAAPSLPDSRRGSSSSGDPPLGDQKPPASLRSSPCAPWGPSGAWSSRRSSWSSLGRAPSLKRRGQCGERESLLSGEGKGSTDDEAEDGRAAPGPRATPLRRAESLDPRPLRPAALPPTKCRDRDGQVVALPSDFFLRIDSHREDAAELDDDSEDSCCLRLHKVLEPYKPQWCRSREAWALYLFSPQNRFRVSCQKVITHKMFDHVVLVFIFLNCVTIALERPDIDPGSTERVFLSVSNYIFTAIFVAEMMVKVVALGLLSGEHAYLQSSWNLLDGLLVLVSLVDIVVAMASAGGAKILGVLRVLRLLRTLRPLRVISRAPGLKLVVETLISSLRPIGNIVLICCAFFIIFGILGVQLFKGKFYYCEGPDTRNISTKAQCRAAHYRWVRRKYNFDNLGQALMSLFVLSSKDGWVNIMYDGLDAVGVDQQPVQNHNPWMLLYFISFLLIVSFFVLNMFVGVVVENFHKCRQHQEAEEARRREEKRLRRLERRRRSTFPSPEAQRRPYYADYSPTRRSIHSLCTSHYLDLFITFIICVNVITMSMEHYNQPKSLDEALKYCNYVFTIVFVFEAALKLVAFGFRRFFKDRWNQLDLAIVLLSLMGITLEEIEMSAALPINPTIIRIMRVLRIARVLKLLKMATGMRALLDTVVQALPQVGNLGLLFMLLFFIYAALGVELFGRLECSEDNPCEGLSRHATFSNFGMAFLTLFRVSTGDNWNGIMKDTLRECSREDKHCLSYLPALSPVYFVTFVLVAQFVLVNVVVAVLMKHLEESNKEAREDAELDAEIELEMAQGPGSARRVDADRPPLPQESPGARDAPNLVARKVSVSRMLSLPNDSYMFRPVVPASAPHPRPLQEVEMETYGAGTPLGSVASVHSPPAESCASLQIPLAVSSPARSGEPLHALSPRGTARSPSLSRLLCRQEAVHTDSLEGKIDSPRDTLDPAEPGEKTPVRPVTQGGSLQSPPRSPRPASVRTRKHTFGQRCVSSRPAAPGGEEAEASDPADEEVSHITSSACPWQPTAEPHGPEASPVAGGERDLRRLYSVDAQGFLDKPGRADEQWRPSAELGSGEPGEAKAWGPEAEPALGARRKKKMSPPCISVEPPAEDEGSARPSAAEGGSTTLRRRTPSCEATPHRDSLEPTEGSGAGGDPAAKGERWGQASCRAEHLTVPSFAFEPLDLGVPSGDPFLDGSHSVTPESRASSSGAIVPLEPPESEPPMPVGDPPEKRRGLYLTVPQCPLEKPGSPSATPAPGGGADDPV
smiles,measurement,value
O=C1O[C@H]([C@@H](O)CO)C(O)=C1O [ascorbic acid],inhibition of Cav3.2 among T-type Ca2+ channels,specifically inhibits
